Patent US10138212B2, “Aminoquinazoline compounds as A2A antagonist” (Merck Sharp & Dohme Corp., priority 2015, dated 2018)

How the values were obtained:
human A2a receptor = human A2a receptor (Homo sapiens (Human), UniProt P29274); assay: A2a competition binding assay using Scintillation Proximity technology
Procedure: (§1) Binding affinities of compounds of the invention for the human A2a receptor were determined in a competition binding assay using Scintillation Proximity technology. Thus, 1* μg, or preferably 0.25 μg of membranes from HEK293 cells expressing the human A2a receptor were incubated with a compound of the invention at concentrations ranging from 3000 nM to 0.15 nM in a reaction mixture containing also 0.5 nM of a tritiated form of 5-amino-7-[2-phenethyl]-2-(furan-2-yl)-7H-pyrazolo[4,3-e][1,2,4]triazolo[1,5-c]pyrimidine (the tritiated compound) and 25 μg of wheat germ agglutin-coated yttrium silicate SPA beads for one hour at room temperature with agitation. The beads were then allowed to settle to the bottom of the wells for 1 hr, after which the membrane-associated radioactivity was determined by scintillation counting in a TopCount microplate reader. Ki values were determined using the Cheng-Prusoff equation.
HEK293 cells expressing the human, rat, dog or monkey adenosine 2a receptor (Purchased from Perkin-Elmer # RBHA2AM400UA).
The Tritiated compound was prepared in-house by MRL Radiochemistry according to published methods.
Wheat germ agglutinin-coated yttrium silicate SPA beads (GE Healthcare #RPNQ0023). Dilute to 25 mg/ml in assay buffer.
Assay Buffer was prepared in house: Dulbecco's calcium and magnesium free phosphate buffered saline+10 mM MgCl2
Adenosine deaminase from calf intestine, 10 mg/2 ml (Roche #10 102 105 001).
A2a antagonist standard (9-chloro-1-(2-furanyl)-[1,2,4]triazolo1,5-c]quinazolin-5-amine from Tocris Bioscience)
Make eight 1:3 serial dilutions in 100% DMSO from a 3 mM compound stock
Transfer 50 nl of compound into a 384-well OptiPlate (Perkin Elmer).
Typically, final concentrations of compound used in the assay ranged from 3000 nM to 0.152 nM.
Dilute a solution of the Tritiated compound to 1.25 nM in assay buffer. This is a 2.5× solution. The final concentration in the assay is 0.5 nM. Calculate the concentration by counting two 5 μl aliquots.
Use *1 ug or preferrably 0.25 ug of membrane/well. Dilute membranes to 9.7 μg/ml in assay buffer. Treat with 20 ug/ml adenosine deaminase (ADA) for 15 minutes at room temperature to degrade endogenous adenosine.
Use 25 μg/well wheat germ agglutinin-coated yttrium silicate SPA beads.
Mix ADA-treated membranes and SPA beads together for 30 min prior to assay.
To the Perkin-Elmer Optiplate-384 containing the compound titration add 20 μl of 2.5× solution of the Tritiated compound and 30 μl of the membrane-bead mixture. Incubate for one hour at room temperature with agitation.
Include total binding (assay buffer+1% DMSO) and non-specific binding (CGS15943, 1 μM) wells.
Allow the beads to settle for one hour.
A curve fitting program (i.e., Prism, Activity Base, Chemcart) is used to determine the EC50. The Ki value is calculated using the Cheng-Prusoff equation. Ki=EC50/(1+(radioligand concentration/Kd))
Using the foregoing assay method, the Ki results were obtained using the compounds of the invention described in Tables IIIa, IIIb, and IV. Each example compound tested is reported in the following format: Example number: A2a Ki reported in nM. Thus, for example, the compound Ex-1 was determined to have an Ki using the above-described assay and calculations, of 10.0 nM.

human A1 receptor = human A1 receptor (Homo sapiens (Human), UniProt P30542); assay: A1 competition binding assay using Scintillation Proximity technology; selectivity = A1 binding Ki / A2a binding Ki; settings: A1 binding Ki divided by A2a binding Ki
Chain of human A1 receptor (P30542 whole entry): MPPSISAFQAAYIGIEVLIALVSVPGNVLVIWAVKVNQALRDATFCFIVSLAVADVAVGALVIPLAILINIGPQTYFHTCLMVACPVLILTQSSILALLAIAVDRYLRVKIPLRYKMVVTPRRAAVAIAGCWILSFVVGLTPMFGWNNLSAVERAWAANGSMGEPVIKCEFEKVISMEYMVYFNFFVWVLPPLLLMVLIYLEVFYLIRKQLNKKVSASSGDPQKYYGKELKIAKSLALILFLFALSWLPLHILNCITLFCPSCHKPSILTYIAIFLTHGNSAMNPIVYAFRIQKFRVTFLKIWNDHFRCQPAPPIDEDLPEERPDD
Procedure: as §1, with “A1” for “A2a”, “5” for “1* μg, or preferably 0.25 μg”, “CHO-K1” for “HEK293”, “0.7” for “0.5”, “8-Cyclopentyl-1,3-dipropylxanthine” for “5-amino-7-[2-phenethyl]-2-(furan-2-yl)-7H-pyrazolo[4,3-e][1,2,4]triazolo[1,5-c]pyrimidine”, “in a similar fashion described with A2a binding.” for “using the Cheng-Prusoff equation.”
• Cells expressing the human, rat, dog or monkey adenosine 1 receptor (Purchased from Perkin-Elmer # ES-010-M400UA • [^3H]DPCPX (purchased from Perkin-Elmer NET-974, 8-cyclopentyl-1,3-dipropylxanthine, [dipropyl-2,3-^3H(N)]. • Wheatgerm agglutinin-coated yttrium silicate SPA beads (Purchased from GE Healthcare #RPNQ0023). Dilute to 25 mg/ml in assay buffer. Store at 4° C. • Assay Buffer—Dulbecco's phosphate buffered saline without calcium and without magnesium+10 mM MgCl2 • Adenosine deaminase from calf intestine, 10 mg/2 ml (Roche #10 102 105 001). • DMSO • DPCPX (A1 antagonist) from Tocris Bioscience Compound Dilution • Dilute compounds to 1 mM in 100% DMSO
Make serial dilutions as necessary (i.e., 1:10, 1:3) in 100% DMSO.
Dilute 1:20 into assay buffer (i.e. 3 ul into 57 ul buffer). This is a 5× solution in 5% DMSO.
• Dilute [^3H]DPCPX to 1.75 nM in assay buffer. This is a 2.5× solution. The final concentration in the assay is 0.7 nM. Calculate the concentration by counting two 5 ul aliquots. Membrane Preparation • Use 5 ug of membrane/well. Dilute membranes to 250 ug/ml in assay buffer. Treat with 20 ug/ml adenosine deaminase (ADA) for 15 minutes at room temperature to degrade endogenous adenosine. Membrane-Bead Mixture • Use 25 ug/well wheatgerm agglutinin-coated yttrium silicate SPA beads • Mix ADA-treated membranes and SPA beads together for 30 min prior to assay. Assay Assembly • Add in order to a Perkin-Elmer Optiplate-384: 10 ul of 5× compound, 20 ul of 2.5× [^3H]DPCPX, 20 ul membrane-bead mixture. Incubate for one hour at room temperature with agitation. • Include total binding (assay buffer+1% DMSO) and non-specific binding (DPCPX, 1 uM) wells. Counting and Calculations

[1] = 0.25 μg of membranes from HEK293 cells expressing the human A2a receptor
[2] = * assay run with 1 μg of membranes versus 0.25 μg, HEK293 cells expressing the human A2a receptor

Chain of human A2a receptor (P29274 whole entry): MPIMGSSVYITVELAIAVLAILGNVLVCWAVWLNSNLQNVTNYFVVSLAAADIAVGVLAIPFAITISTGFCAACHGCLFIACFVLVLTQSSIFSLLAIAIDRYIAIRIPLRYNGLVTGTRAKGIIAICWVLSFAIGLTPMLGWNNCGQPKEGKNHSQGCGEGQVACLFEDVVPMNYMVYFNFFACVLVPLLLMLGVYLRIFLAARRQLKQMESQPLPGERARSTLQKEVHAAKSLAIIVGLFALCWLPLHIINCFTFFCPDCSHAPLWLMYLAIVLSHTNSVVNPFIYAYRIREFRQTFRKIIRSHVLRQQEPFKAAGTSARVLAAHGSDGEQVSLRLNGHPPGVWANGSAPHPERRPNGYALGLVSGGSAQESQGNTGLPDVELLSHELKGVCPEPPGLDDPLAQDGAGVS

Row | SMILES | Ki (human A2a receptor; [1]) | A2a selectivity (A2a A1 binding selectivity) (human A1 receptor) | Ki (human A2a receptor; [2])
1 | COc1cccc2c(C(=O)N[C@@H](CO)c3ccc4ccccc4n3)nc(N)nc12 [Example 37, 2-amino-N-[(1R)-2-hydroxy-1-(2-quinolyl)ethyl]-8-methoxy-quinazoline-4-carboxamide] | 8.3 nM | 32 | 
2 | COc1cccc2c(C(=O)NCc3ncccn3)nc(N)nc12 [Example 38, 2-amino-8-methoxy-N-(pyrimidin-2-ylmethyl)quinazoline-4-carboxamide] | 43 nM | 94 | 
3 | COc1cccc2c(C(=O)NC(C)(C)c3ccccn3)nc(N)nc12 [Example 39, 2-amino-8-methoxy-N-[1-methyl-1-(2-pyridyl)ethyl]quinazoline-4-carboxamide] | 415 nM | 9 | 
4 | COc1cccc2c(C(=O)NC3(c4ccccn4)CC3)nc(N)nc12 [Example 40, 2-amino-8-methoxy-N-[1-(2-pyridyl)cyclopropyl]quinazoline-4-carboxamide] | 929 nM | 3 | 
5 | COc1cccc2c(C(=O)NCc3ccccc3-c3cccnc3)nc(N)nc12 [Example 41, 2-amino-8-methoxy-N-[[2-(3-pyridyl)phenyl]methyl]quinazoline-4-carboxamide] |  | 56 | 9.2 nM
6 | COc1cccc2c(C(=O)NCc3cccc4c3OC(F)(F)O4)nc(N)nc12 [Example 42, 2-amino-N-[(2,2,-difluoro-1,3-benzodioxol-4-yl)methyl]-8-methoxy-quinazoline-4-carboxamide] |  | 39 | 5.3 nM
7 | COc1cccc2c(C(=O)NCc3ccccc3-c3ccccn3)nc(N)nc12 [Example 43, 2-amino-8-methoxy-N-[[2-(2-pyridyl)phenyl]methyl]quinazoline-4-carboxamide] |  | 84 | 2.3 nM
8 | Nc1nc(C(=O)NCc2cccc(COc3ccccn3)n2)c2cccc(F)c2n1 [Example 46, 2-amino-8-fluoro-N-[[6-(2-pyridyloxymethyl)-2-pyridyl]methyl]quinazoline-4-carboxamide] | 2.2 nM | 484 | 
9 | N#Cc1ccc(OCc2cccc(CNC(=O)c3nc(N)nc4c(F)cccc34)n2)cc1 [Example 47, 2-amino-N-[[6-[(4-cyanophenoxy)methyl]-2-pyridyl]methyl]-8-fluoro-quinazoline-4-carboxamide] |  | 36 | 3.8 nM
10 | COc1cccc2c(C(=O)NCc3cccc(COC4CCCC4)n3)nc(N)nc12 [Example 48, 2-amino-N-[[6-(cyclopentoxymethyl)-2-pyridyl]methyl]-8-methoxy-quinazoline-4-carboxamide] | 0.5 nM | 447 | 
11 | COc1cccc2c(C(=O)NCc3cccc(COCC(C)C)n3)nc(N)nc12 [Example 51, 2-amino-N-[[6-(isobutoxymethyl)-2-pyridyl]methyl]-8-methoxy-quinazoline-4-carboxamide] | 1.9 nM | 90 | 
12 | COc1cccc2c(C(=O)NCc3cccc(CN4CCOCC4)c3)nc(N)nc12 [Example 53, 2-amino-8-methoxy-N-[[3-(morpholinomethyl)phenyl]methyl]quinazoline-4-carboxamide] | 7.1 nM | 63 | 

Next, values leading:

Row | Ki (human A2a receptor; [1]) | A2a selectivity (A2a A1 binding selectivity) (human A1 receptor) | Ki (human A2a receptor; [2]) | SMILES
13 | 0.2 nM | 531 |  | COc1cccc2c(C(=O)NCc3cccc(COc4ccccc4F)n3)nc(N)nc12 [Example 44, 2-amino-N-[[6-[(2-fluorophenoxy)methyl]-2-pyridyl]methyl]-8-methoxy-quinazoline-4-carboxamide]
14 | 0.3 nM | 230 |  | COc1cccc2c(C(=O)NCc3cccc(COc4ccc(F)cc4)n3)nc(N)nc12 [Example 45, 2-amino-N-[[6-[(4-fluorophenoxy)methyl]-2-pyridyl]methyl]-8-methoxy-quinazoline-4-carboxamide]
15 | 0.5 nM | 251 |  | COc1cccc2c(C(=O)NCc3cccc(COCC4CCCC4)n3)nc(N)nc12 [Example 49, 2-amino-N-[[6-(cyclopentylmethoxy-methyl)-2-pyridyl]methyl]-8-methoxy-quinazoline-4-carboxamide]
16 | 1.3 nM | 160 |  | COc1cccc2c(C(=O)NCc3cccc(COCC4CC4)n3)nc(N)nc12 [Example 50, 2-amino-N-[[6-(cyclopropylmethoxy-methyl)-2-pyridyl]methyl]-8-methoxy-quinazoline-4-carboxamide]
17 | 1.1 nM | 140 |  | COc1cccc2c(C(=O)NCc3cccc(CO[C@H]4CCOC4)n3)nc(N)nc12 [Example 52, 2-amino-8-methoxy-N-[[6-[[(3S)-tetrahydrofuran-3-yl]oxymethyl]-2-pyridyl]methyl]quinazoline-4-carboxamide]
18 |  | 49 | 2.1 nM | COc1cccc2c(C(=O)NCc3cccc(COc4cccc(F)c4)n3)nc(N)nc12 [Example 54, 2-amino-N-[[6-[(3-fluorophenxoy)methyl]-2-pyridyl]methyl]-8-methoxy-quinazoline-4-carboxamide]
19 |  | 36 | 3.2 nM | COc1cccc2c(C(=O)NCc3cccc(CSc4ccc(F)cc4)n3)nc(N)nc12 [Example 55, 2-amino-N-[[6-[(4-fluorophenyl)sulfanyl-methyl]-2-pyridyl]methyl]-8-methoxy-quinazoline-4-carboxamide]
20 | 6.3 nM | 111 |  | COc1cccc2c(C(=O)NCc3cccc(CSc4nc5ccccc5[nH]4)n3)nc(N)nc12 [Example 56, 2-amino-N-[[6-(1H-benzimidazol-2-ylsulfanylmethyl)-2-pyridyl]methyl]-8-methoxy-quinazoline-4-carboxamide]
